Assay results as given in US20190192502A1, “Modulation of Transcription Initiation Factor TFIID Subunit 1 (TAF1) for Treating Leukemia” (UNIVERSITY OF MIAMI, priority 2017, published 2019).

How the values were obtained:
[1] = system: Kasumi-1 cells; test: Cell growth, CellTiter-Glow luminescent cell viability assay, Kasumi-1 cells; assay type: cell-based, human; details: for growth of Kasumi-1 cells: 3 days of treatment
Description: (§1) FIGS. 8A-8F. The effect of TAF1 bromodomain inhibitor Bay-364 on the growth of Kasumi-1 cells, K562 cells and CD34+ cells. (FIGS. 8A-8C) The growth of Kasumi-1 cells, CD34+ cells and K562 cells in the presence or absence of different concentrations of bromodomain inhibitors Bay-364, Bay-299 or JQ-1. The cell growth was measured by CellTiter-Glow luminescent cell viability assay after 3 days of treatment with the inhibitors. Each treatment was in triplicate and shown as average±SD. (FIG. 8D) IC50s (μM) of inhibitors on Kasumi-1, CD34+ and K562 cellsKasumi-1 cells, CD34+ cells and K562 cells were treated with different concentrations of Bay-364, Bay-299 and JQ-1 for three days and cell growth was measured by CellTiter-Glow luminescent cell viability assay. Each treatment was in triplicate and IC50s were calculated using GraphPad Prism. […] RNA was extracted from Kasumi-1 cells treated with or without Bay-364 for 72 hours. mRNA levels of individual genes were standardized by 18S rRNA level. (FIG. 8F) TAF1 working model: Under normal conditions, the acetylation of K43 on AE by p300 is recognized by the bromodomains of TAF1 and TAF1 enhances the binding of AE to chromatin. Then transcription is activated. In absence of TAF1, the binding affinity of AE with chromatin is abrogated, and transcription is blocked.
Kasumi-1 cells were grown in RPMI 1640 supplemented with 20% fetal bovine serum, SKNO-1 cells were grown in RPMI 1640 with 10% fetal bovine serum and 10 ng/ml GM-CSF. K562 cells were grown in IMDM with 10% fetal bovine serum.
Bay-364 (also Bay-299N) is a commercially available small molecule inhibitor of the second bromodomain in TAF1. Given the essential role of TAF1 in the proliferation of AE expressing cells, the effect of Bay-364 on the growth of Kasumi-1, K562 and CD34+ cells was examined. […] JQ-1 inhibits the bromodomains of several BET family proteins including BRD2, BRD3, BRD4 and BRDT.

[2] = system: CD34+ cells; test: Cell growth, CellTiter-Glow luminescent cell viability assay, CD34+ cells; assay type: cell-based, human; details: 3 days of treatment
Description: as §1, with “(FIG. 8F) TAF1 working model: Under normal conditions, the acetylation of K43 on AE by p300 is recognized by the bromodomains of TAF1 and TAF1 enhances the binding of AE to chromatin. Then transcription is activated. In absence of TAF1, the binding affinity of AE with chromatin is abrogated, and transcription is blocked.” left out
Human cord blood was purchased from the New York Blood Center. […] Seven days after the initial plating, colonies were counted and then all the cells were collected for replating weekly with a density of 3000 cells per well for continuous 4 weeks. Cobblestone area forming cell assays (CAFC) were performed as described previously 25, the numbers of total cobblestone area were counted after 5 weeks. […]

[3] = system: K562 cells; test: Cell growth, CellTiter-Glow luminescent cell viability assay, K562 cells; assay type: cell-based; details: 3 days of treatment
Description: as §1, with “blocked. […]” for “blocked.”

[4] = system: AE upregulated genes (ID1, CARM1, MYC); test: Realtime PCR of AE upregulated genes in Kasumi-1 cells; assay type: cell-based, human; details: 72 hours, standardized by 18S rRNA level
Description: as §1, with “In absence of TAF1, the binding affinity of AE with chromatin is abrogated, and transcription is blocked.” left out
RNA was extracted using RNeasy mini kit (Qiagen) and cDNA was generated by QuantiTect Rev. […]

| Structure (SMILES) | growth of Kasumi-1 cells [1] | growth of CD34+ cells [2] | growth of K562 cells [3] | mRNA levels of ID1, CARM1, MYC [4] | IC50s on Kasumi-1 cells compared with CD34+ cells ([1]; three days, GraphPad Prism) |
| --- | --- | --- | --- | --- | --- |
| Cn1c(=O)[nH]c2cc(N3C(=O)c4cccc5c(CCCO)ccc(c45)C3=O)ccc21 [Bay-364] | more sensitive to Bay-364 treatment than CD34+ cells | much less toxicity on HSPCs | little influence on the growth | repressed the expression of these genes |  |
| Cc1cc2c(cc1N1C(=O)c3cccc4c(CCCO)ccc(c34)C1=O)n(C)c(=O)n2C [Bay-299, 6-(3-Hydroxypropyl)-2-(1,3,6-trimethyl-2-oxo-2,3-dihydro-1Hbenzimidazol-5-yl)-1H-benzo[de]isoquinoline-1,3(2H)-dione] | suppresses the growth | suppresses the growth | suppresses the growth |  |  |
| Cc1sc2c(c1C)C(c1ccc(Cl)cc1)=N[C@@H](CC(=O)OC(C)(C)C)c1nnc(C)n1-2 [JQ-1] | more potent than Bay-364 |  |  |  | quite similar |
